What was measured:
Test in all cases: relative viability (nuclei count vs DMSO), 5 days (fraction); higher = more cells survive
Fedratinib + Luminespib = compound: Cc1cnc(Nc2ccc(OCCN3CCCC3)cc2)nc1Nc1cccc(S(=O)(=O)NC(C)(C)C)c1 [Fedratinib] + CCNC(=O)c1noc(-c2cc(C(C)C)c(O)cc2O)c1-c1ccc(CN2CCOCC2)cc1 [Luminespib] (partner 0.01 µM)
Method in brief: (§1)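 Medians of duplicate plates are given as relative viability. That measure is the nuclei count in treated wells divided by the count in vehicle wells. Counts were taken on 4× images of lung cancer cell lines in 1536-well plates, 5 days after pin-tool dosing the day after seeding with one drug alone or a fixed anchor-drug dose plus five library-drug doses (not always all listed) in √10 steps.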

GW-2580 + Phenformin = compound: COC1=CC=C(C=C1)COC2=C(C=C(C=C2)CC3=CN=C(N=C3N)N)OC [GW-2580] + N=C(N)NC(=N)NCCc1ccccc1 [Phenformin] (partner 250 µM)
Method in brief: as §1

GW-2580 + Dasatinib = compound: COC1=CC=C(C=C1)COC2=C(C=C(C=C2)CC3=CN=C(N=C3N)N)OC [GW-2580] + Cc1nc(Nc2ncc(C(=O)Nc3c(C)cccc3Cl)s2)cc(N2CCN(CCO)CC2)n1 [Dasatinib] (partner 0.075 µM)
Method in brief: as §1

Fedratinib + Linsitinib = compound: Cc1cnc(Nc2ccc(OCCN3CCCC3)cc2)nc1Nc1cccc(S(=O)(=O)NC(C)(C)C)c1 [Fedratinib] + C[C@]1(O)C[C@@H](c2nc(-c3ccc4ccc(-c5ccccc5)nc4c3)c3c(N)nccn32)C1 [Linsitinib] (partner 1 µM)
Method in brief: as §1

Fedratinib + Decitabine = compound: Cc1cnc(Nc2ccc(OCCN3CCCC3)cc2)nc1Nc1cccc(S(=O)(=O)NC(C)(C)C)c1 [Fedratinib] + Nc1ncn([C@H]2C[C@H](O)[C@@H](CO)O2)c(=O)n1 [Decitabine] (partner 2 µM)
Method in brief: as §1

GW-2580 + Decitabine = compound: COC1=CC=C(C=C1)COC2=C(C=C(C=C2)CC3=CN=C(N=C3N)N)OC [GW-2580] + Nc1ncn([C@H]2C[C@H](O)[C@@H](CO)O2)c(=O)n1 [Decitabine] (partner 2 µM)
Method in brief: as §1

UMC-11
relative viability (Fedratinib + Luminespib; first compound 0.1 µM): 0.984 | relative viability (Fedratinib + Luminespib; first compound 0.3162 µM): 0.887 | relative viability (Fedratinib + Luminespib; first compound 1 µM): 0.758 | relative viability (GW-2580 + Phenformin; first compound 0.08 µM): 0.349 | relative viability (GW-2580 + Phenformin; first compound 0.8 µM): 0.311 | relative viability (GW-2580 + Phenformin; first compound 2.53 µM): 0.388 | relative viability (GW-2580 + Phenformin; first compound 8 µM): 0.343 | relative viability (GW-2580 + Dasatinib; first compound 0.08 µM): 0.572 | relative viability (GW-2580 + Dasatinib; first compound 0.8 µM): 0.508 | relative viability (GW-2580 + Dasatinib; first compound 2.53 µM): 0.441 | relative viability (GW-2580 + Dasatinib; first compound 8 µM): 0.62 | relative viability (Fedratinib + Linsitinib; first compound 0.1 µM): 0.995 | relative viability (Fedratinib + Linsitinib; first compound 0.3162 µM): 0.864 | relative viability (Fedratinib + Linsitinib; first compound 1 µM): 0.848 | relative viability (Fedratinib + Decitabine; first compound 0.1 µM): 0.61 | relative viability (Fedratinib + Decitabine; first compound 0.3162 µM): 0.603 | relative viability (Fedratinib + Decitabine; first compound 1 µM): 0.551 | relative viability (GW-2580 + Decitabine; first compound 0.08 µM): 0.617 | relative viability (GW-2580 + Decitabine; first compound 0.8 µM): 0.424 | relative viability (GW-2580 + Decitabine; first compound 8 µM): 0.586
